From patent US20060014193A1, “Nucleoside phosphoramidates and nucleoside phosphoramidases” (priority 2004, published 2006)
Marks after values point to notes of the source that are not given here.

Assays:
hHINT1 = hHINT1 (Homo sapiens, UniProt P49773); assay: Catalytic activity (velocity) of cloned, purified phosphoramidase with AMPNH2; type: biochemical
From the text: The enzyme responsible for hydrolysis of AZT amino acid phosphoramidates was cloned and characterized. After construction of a cDNA library from peripheral blood mononuclear cells (PBMCs) in T7Select10-3b phage, the phage display technique was employed to isolate the enzyme by affinity chromatography. After three rounds of phage selection and ampilification with an affinity column constructed from the L-tryptophan carbamate, DNA from ten selected plaques was amplified by PCR and sequenced. […] Hint1 is a member of the HIT protein superfamily, which consists of a recently identified adenosine 5′-monophosphoramide hydrolases from rabbit and yeast.
(§1) Velocity of the enzymes was determined at pH 7.2 at room temperature in the presence of 10 mM AMPNH2.

ycfF = target: T1, ycfF (Escherichia coli, UniProt P0ACE7); assay: as above; type: biochemical, E. coli; conditions: pH 7.2, room temperature, 10 mM AMPNH2
T1 construct: made in house
T1 sequence (P0ACE7 whole entry): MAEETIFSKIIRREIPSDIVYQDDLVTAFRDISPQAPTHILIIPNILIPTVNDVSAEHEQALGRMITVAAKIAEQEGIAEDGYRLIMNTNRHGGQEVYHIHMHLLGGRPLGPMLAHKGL
Procedure: The putative bacterial phosphoramidase was cloned and over-expressed as described for the human homologue, and found to be a nucleoside phosphoramidase.
as §1

[1] = target: T2, BL21 Star (WT) cell lysates (Escherichia coli, UniProt P0ACE7); assay: 31P NMR phosphoramidase activity in cell lysates; type: biochemical, E. coli; conditions: for Specific activity: 0.5 mg protein
T2 construct: endogenous in cells; host or cells: E. coli BL21 Star
T2 sequence (P0ACE7 whole entry): as above
Procedure: (§2) Phosphoramidase activity in cell lysates was measured by the ^1H-decoupling mode of phosphorus-31 NMR spectroscopy (Varian VAC-300 spectrometer), which can clearly distinguish the substrate, AMP-NH2, and the product, adenosine 5′-monophosphate (AMP). NMR spectrometry is suitable for quantitation by integration of the area under the peak, which is proportional to the amount of nuclei present. The relative ratio of peak areas can be used to calculate the amount of turnover corrected based on a standard curve.
(§3) Cell lysates from E. coli Tuner(DE3)pLacI cells (Novagen) were obtained by treatment with lysozyme (1 mg/ml) and the DNA was precipitated by protamine sulfate followed by centrifugation to remove cell debris. The supernatant was dialyzed extensively against Buffer A (20 mM Tris (pH 7.0); 1 mM EDTA; 1 mM DTT, 0.01 mM PMSF) to remove cellular phosphates and nucleotides. […] The reactions were terminated by snap freezing in a dry ice/acetone slush bath and lyophilized for 5 h. The samples were then dissolved in NMR buffer (600 μL, 50 mM EDTA, 20 mM HEPES (pH 7.2), and 1 mM TMP (trimethylphosphate, internal standard)) and the insoluble portion was spun down by centrifugation at 12,500×g for 5 min. A ^31P NMR spectrum was then collected for the supernatant. For the low pH control experiment, 10 mM AMP-NH2 in reaction buffer (500 μL, pH 2.0) was incubated at 37° C. for 12 h and the 31p signal was detected under the same conditions.
(§4) To determine if E. coli hinT is solely responsible of the observed lysates' phosphoramidase activity, a mutant strain, BB1, in which the hinT gene was replace with the chloramphenicol resistance marker, was constructed. The phosphoramidase activities of the wild-type E. coli BL21 Star strain and the mutant strain lysates were determined (Table 3). […] (Table 2). Therefore, the adenosine phosphoramidase activity observed for E. coli cell lysates appears to be totally dependent on hinT.

[2] = tested on: BB2-1 (-HINT) cell lysates; assay: 31P NMR phosphoramidase activity in cell lysates of hinT deletion strain; type: biochemical, E. coli
Procedure: as §2, §3
The E. coli hinT gene in strain BW25113 was disrupted as previously described (Datsenko & Wanner, 2000, PNAS USA, 97:6640-6645). Plasmid pKD3 and primers 7024 and 7025 (Table 2) were used for amplification of the chloramphenicol resistance marker (Cm^r). Stable chloramphenicol resistant transformants of BW25113 were tested by PCR with primers 7026 and 7027 to confirm correct recombination of the Cm^r marker into the hinT locus. A strain that tested positive by PCR was named BB1. Strain BB3 was constructed by removing the antibiotic resistance marker using Red recombinase as described previously (Datsenko & Wanner, supra). The hinT gene was amplified from the chromosomal DNA of E. coli strain BW25113 with primers 7328 and 7329. The product of this reaction was cloned into Bluescript SK+ using EcoRI and BamHI sites included in the primers' sequences. The resulting plasmid was named pB429. […] Plasmids pB432 and pB433 were obtained by cloning HindIII-EcoRI fragments containing wild type and H101A mutated alleles of hinT from plasmids pB429 and pB431 into plasmid pACYC184. All E. coli transformations were performed by electroporation.
as §4

Rabbit HINT1 = target: T3, Rabbit HINT1 (Oryctolagus cuniculus, UniProt P80912); conditions: Bieganowski et al, 2002; cited from earlier work
T3 construct: made in house; host or cells: E. coli hinT deletion mutant
T3 sequence (P80912 whole entry): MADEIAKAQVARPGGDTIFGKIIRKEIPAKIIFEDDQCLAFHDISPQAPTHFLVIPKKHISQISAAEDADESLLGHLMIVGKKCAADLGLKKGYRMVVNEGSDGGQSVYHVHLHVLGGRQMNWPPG

Yeast HNT = target: T4, Yeast HNT (Saccharomyces cerevisiae, UniProt Q04344); conditions: Bieganowski et al, 2002; cited from earlier work
T4 sequence (Q04344 1-158): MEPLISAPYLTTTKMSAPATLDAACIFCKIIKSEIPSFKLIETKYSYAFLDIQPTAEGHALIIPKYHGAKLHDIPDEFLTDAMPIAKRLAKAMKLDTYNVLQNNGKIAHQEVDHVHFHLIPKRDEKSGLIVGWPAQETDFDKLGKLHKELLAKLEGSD

Chain of hHINT1 (P49773 whole entry): as the sequence (P80912 whole entry) above, with Q37R, A65V, A69D, K91N, N122H counted along it

Q: Which results are given for `Nc1ncnc2c1ncn2[C@@H]1O[C@H](COP(N)(=O)O)[C@@H](O)[C@H]1O` [AMP-NH2, Adenosine 5′-monophosphoramidate]?
A: Hydrolysis by over-expressed, purified human Hint1 (hHINT1): efficiently hydrolyze; Velocity (hHINT1; pH 7.2, room temperature, 10 mM AMPNH2): 5.46 nmol/µg/min; Velocity (ycfF): 14.19 nmol/µg/min; Specific activity of BL21 Star WT cell lysates [1]: 20.1 (±7.7) nmol mg^−1 min^−1; Specific activity ([1]; 30 min): 15.5 nmol/mg/min; Specific activity ([1]; 70 min): 26.4 nmol/mg/min; Average specific activity ([1]; average): 20.95 ± 7.71 nmol/mg/min; AMP formation with lysates of hinT deletion strain BB1 [2]: no AMP formation could be observed; Specific activity ([2]; 0.2 mg protein, 30 min): 0 nmol/mg/min; Specific activity ([2]; 0.5 mg protein, 30 min): 0 nmol/mg/min; Specific activity ([2]; 0.5 mg protein, 70 min): 0 nmol/mg/min; Specific activity ([2]; 0.5 mg protein, 1380 min): 0 nmol/mg/min; Average specific activity ([2]; average): 0 nmol/mg/min; Velocity (Rabbit HINT1): 1.71^b nmol/μg/min; Velocity (Yeast HNT): 7.57^b nmol/μg/min
